In patent publication US9834579B2, “Crystalline forms of s-acetyl glutathione, their preparations and uses in pharmaceutical and nutraceutical formulations” (Gnosis S.p.A., priority 2013, dated 2017):

What was measured:
[1] = dissolution rate in water; assay type: physicochemical; details: comparison of solid forms
[2] = accelerated stability test of solid forms at 50° C. for 6 months (European Pharmacopoeia); assay type: physicochemical; details: for GSH / GSSG / SAG / Unknown impurities (single) / Unknown impurities (total): % area
Procedure: The stability of the various solid forms was tested as described in the European Pharmacopoeia (EP), by conducting accelerated stability tests at 50° C. for 6 months.

[3] = powder density / apparent density; assay type: physicochemical; details: for Apparent density: product of the example after drying
[4] = heat and mechanical stress, conversion of one polymorph to the other; assay type: physicochemical; details: heat and mechanical stresses
[5] = flowability of the powders; assay type: physicochemical; details: comparison of crystalline forms
[6] = oral, seven healthy volunteers, doses of up to 3 g per dose; cited from earlier work
[7] = tested on: fibroblasts originating from individuals suffering from a genetic glutathione synthetase deficiency; details: addition to fibroblast cultures; cited from earlier work
human tumour cell lines = details: some human tumour cell lines in vitro; cited from earlier work
[8] = compared with GSH; cited from earlier work
[9] = tested on: cell levels of GSH impoverished by viral infections; details: cells impoverished by viral infections, compared with GSH; cited from earlier work

SMILES | SAG - assay value ([2]; 0 months) | GSH ([2]; 0 months) | GSSG ([2]; 0 months) | SAG ([2]; 0 months) | Unknown impurities (single) ([2]; 0 months) | Unknown impurities (total) ([2]; 0 months) | SAG - assay value ([2]; 1.5 months) | GSH ([2]; 1.5 months) | GSSG ([2]; 1.5 months) | SAG ([2]; 1.5 months) | Unknown impurities (single) ([2]; 1.5 months) | Unknown impurities (total) ([2]; 1.5 months) | SAG - assay value ([2]; 3 months) | GSH ([2]; 3 months) | GSSG ([2]; 3 months) | SAG ([2]; 3 months) | Unknown impurities (single) ([2]; 3 months) | Unknown impurities (total) ([2]; 3 months) | SAG - assay value ([2]; 4.5 months) | GSH ([2]; 4.5 months) | other results
CC(=O)SC[C@H](NC(=O)CC[C@H](N)C(=O)O)C(=O)NCC(=O)O [Amorphous, S-acetyl glutathione] | 96.5% | 1.0% | 2.5% | 95.1% | 0.4% | 1.4% | 94.9% | 1.6% | 2.5% | 94.6% | 0.9% | 1.9% | 92.4% | 2.4% | 2.8% | 91.3% | 1.2% | 2.3% | 91.5% | 2.8% | dissolution rate ([1]; listed as amorphous form): dissolves more rapidly; GSSG ([2]; 4.5 months): 2.9%; SAG ([2]; 4.5 months): 90.4%; Unknown impurities (single) ([2]; 4.5 months): 1.3%; Unknown impurities (total) ([2]; 4.5 months): 2.7%; SAG - assay value ([2]; 6 months): 89.9%; GSH ([2]; 6 months): 2.5%; GSSG ([2]; 6 months): 3.9%; SAG ([2]; 6 months): 88.6%; Unknown impurities (single) ([2]; 6 months): 1.5%; Unknown impurities (total) ([2]; 6 months): 3.5%; stability of the solid form (comparison) ([2]; 6 months, data of Table 3): much less stable than the crystalline forms
CC(=O)SC[C@H](NC(=O)CC[C@H](N)C(=O)O)C(=O)NCC(=O)O [Example 3, S-acetyl glutathione] | – | – | – | – | – | – | – | – | – | – | – | – | – | – | – | – | – | – | – | – | Apparent density [3]: 0.35 g/mL
CC(=O)SC[C@H](NC(=O)CC[C@H](N)C(=O)O)C(=O)NCC(=O)O [Form A, S-acetyl glutathione] | 98.6% | 0.1% | 2.2% | 96.3% | 0.4% | 1.0% | 98.3% | 0.1% | 2.2% | 95.5% | 0.5% | 1.7% | 97.8% | 0.2% | 2.3% | 95.1% | 0.5% | 1.9% | 97.6% | 0.2% | GSSG ([2]; 4.5 months): 2.4%; SAG ([2]; 4.5 months): 94.7%; Unknown impurities (single) ([2]; 4.5 months): 0.7%; Unknown impurities (total) ([2]; 4.5 months): 2.0%; SAG - assay value ([2]; 6 months): 97.4%; GSH ([2]; 6 months): 0.3%; GSSG ([2]; 6 months): 2.4%; SAG ([2]; 6 months): 94.4%; Unknown impurities (single) ([2]; 6 months): 0.9%; Unknown impurities (total) ([2]; 6 months): 2.0%; conversion of one polymorph to the other [4]: not found; flowability of the powder [5]: better flowability; powder density [3]: 0.2 to 0.25 g/mL; Apparent density ([3]; listed as Example 1): 0.15 to 0.25 g/mL
CC(=O)SC[C@H](NC(=O)CC[C@H](N)C(=O)O)C(=O)NCC(=O)O [Form B, S-acetyl glutathione] | 99.3% | 0.2% | 1.1% | 97.7% | 0.2% | 0.8% | 99.1% | 0.3% | 1.2% | 97.1% | 0.5% | 0.9% | 98.7% | 0.7% | 0.8% | 96.7% | 0.7% | 1.1% | 98.3% | 0.9% | dissolution rate [1]: most rapid dissolution rate; GSSG ([2]; 4.5 months): 1.1%; SAG ([2]; 4.5 months): 96.0%; Unknown impurities (single) ([2]; 4.5 months): 0.7%; Unknown impurities (total) ([2]; 4.5 months): 1.3%; SAG - assay value ([2]; 6 months): 98.1%; GSH ([2]; 6 months): 1.0%; GSSG ([2]; 6 months): 0.9%; SAG ([2]; 6 months): 95.7%; Unknown impurities (single) ([2]; 6 months): 0.8%; Unknown impurities (total) ([2]; 6 months): 2.0%; conversion of one polymorph to the other [4]: not found; powder density [3]: 0.4 g/mL; Apparent density ([3]; listed as Example 2): 0.25 to 0.40 g/mL
N[C@@H](CCC(=O)N[C@@H](CS)C(=O)NCC(=O)O)C(=O)O [GSH, γ-L-glutamyl-L-cysteinylglycine] | – | – | – | – | – | – | – | – | – | – | – | – | – | – | – | – | – | – | – | – | increase in the blood levels of glutathione, cysteine and glutamate [6]: no significant increases
CC(=O)SC[C@H](NC(=O)CC[C@H](N)C(=O)O)C(=O)NCC(=O)O [SAG, S-acetyl glutathione] | – | – | – | – | – | – | – | – | – | – | – | – | – | – | – | – | – | – | – | – | replenishment of the intracellular level of GSH [7]: able to replenish the intracellular level of GSH effectively; induction of apoptosis (non-GSH-dependent activity) (human tumour cell lines): induces apoptosis; stability in the plasma [8]: more stable in the plasma; replenishing the cell levels of GSH [9]: more effective than GSH
